# From patent publication US8445444B2, “Compositions and methods for diagnosing, treating, and preventing prostate conditions” (Phigenix, Inc., priority 2007, dated 2013)
# “Also recorded” adds a separate entry of the source.
# How the values were obtained:
# DU145 [1] = test: Western analysis; type: cell-based, human; conditions: for PAX2 expression / phospho-PAX2 protein levels / phospho-JNK protein levels: DU145; for PAX2 expression / phospho-PAX2 protein levels: 5 uM Los, 25 uM U0126, 20 uM PD98059, 250 μM AICAR
# Experimental: . Following a 15 minute incubation period at 4° C. on an orbital shaker, cell lysate were then collected and centrifuged for 10 minutes at 12000×g to pellet cellular debris. The protein-containing supernatant were then collected and quantitated. Next, 25 μg protein extract was loaded onto an 8-16% gradient SDS-PAGE (Novex). Following electrophoresis, proteins were transferred to PVDF membranes, and then blocked with 5% nonfat dry milk in TTBS (0.05% Tween 20 and 100 mM Tris-Cl) for 1 hour. Blots were then probed with rabbit anti-PAX2 primary antibody (Zymed, San Francisco, Calif.) at a 1:2000 dilution. After washing, the membranes were incubated with anti-rabbit antibody conjugated to horseradish peroxidase (HRP) (dilution 1:5000; Sigma), and signal detection was visualized using chemilluminescence reagents (Pierce) on an Alpha Innotech Fluorchem 8900. As a control, blots were stripped and reprobed with mouse anti-β-actin primary antibody (1:5000; Sigma-Aldrich) and HRP-conjugated anti-mouse secondary antibody (1:5000; Sigma-Aldrich) and signal detection was again visualized.
# Following a 15-minute incubation period at 4° C. on an orbital shaker, cell lysates were collected and centrifuged for 10 minutes at 12000×g to pellet cellular debris. The protein-containing supernatant were then collected and quantitated. Next, 25 ug protein extract was loaded onto an 8-16% gradient SDS-PAGE (Novex). Following electrophoresis, proteins were transferred to PVDF membranes, and then blocked with 5% nonfat dry milk in TTBS (0.05% Tween 20 and 100 mM Tris-Cl) for 1 hour. Blots were then probed with primary antibody (anti-PAX2, -phospho-PAX2, -JNK, -phospho-JNK, -ERK1/2, or -phospho-ERK1/2) (Zymed, San Francisco, Calif.) at 1:1000-2000 dilutions. After washing, the membranes were incubated with anti-rabbit antibody conjugated to horseradish peroxidase (HRP) (dilution 1:5000; Sigma), and signal detection was visualized using chemilluminescence reagents (Pierce) on an Alpha Innotech Fluorchem 8900. As a control, blots were stripped and re-probed with mouse anti-β-actin primary antibody (1:5000; Sigma-Aldrich) and HRP-conjugated anti-mouse secondary antibody (1:5000; Sigma-Aldrich), and signal detection was again visualized.
# . Following a 15-min incubation period at 4° C. on an orbital shaker, cell lysates were collected and centrifuged for 10 min at 12,000 g to pellet cellular debris. The protein-containing supernatant were then collected and quantitated. Next, 25 μg protein extract was loaded onto an 8-16% gradient SDS-PAGE (Novex). Following electrophoresis, proteins were transferred to PVDF membranes, and then blocked with 5% non-fat dry milk in TTBS (0.05% Tween 20 and 100 mM Tris-Cl) for 1 h. Blots were then probed with rabbit anti-PAX2 primary antibody (Zymed, San Francisco, Calif.) at a 1:1000 dilution. After washing, the membranes were incubated with anti-rabbit antibody conjugated to horseradish peroxidase (HRP) (dilution 1:5000; Sigma), and signal detection was visualized using chemiluminescence reagents (Pierce) on an Alpha Innotech Fluorchem 8900. As a control, blots were stripped and reprobed with mouse anti-β-actin primary antibody (1:5000; Sigma-Aldrich) and HRP-conjugated anti-mouse secondary antibody (1:5000; Sigma-Aldrich), and signal detection was again visualized.
# DU145 [2] = test: Western analysis; type: cell-based, human; conditions: 5 uM Los, 25 uM U0126, 20 uM PD98059, 250 μM AICAR
# DU145 [3] = test: Quantitative RT-PCR of gene expression; type: cell-based, human; conditions: for PAX2 message levels: DU145, Losartan (FIG. 20A)
# Experimental: Total RNA was isolated using the SV Total RNA Isolation System (Promega). Briefly, approximately 1×10^6 cells were harvested by trypsinizing, and rinsed in PBS. Cells were then lysed and total RNA was isolated by centrifugation through spin columns. Total RNA (0.5 μg per reaction) was reverse transcribed into cDNA utilizing Oligo (dT) 15 primer (Promega) and AMV Reverse Transcriptase II enzyme (500 units per reaction; Promega) for first strand synthesis and Tfl DNA Polymerase for second strand synthesis (500 units per reaction; Promega) as per the manufacturers' protocol, with identical control samples treated without RT enzyme. Typically, 50 pg of each cDNA was used per ensuing PCR reaction Two-step QRT-PCR was performed on cDNA generated using the MultiScribe Reverse Transcripatase from the TaqMan Reverse Transcription System and the SYBR Green PCR Master Mix (PE Biosystems). […] Reactions were performed in MicroAmp Optical 96-well Reaction Plate (PE Biosystems). Forty cycles of PCR were performed under standard conditions using an annealing temperature of 60° C. Quantification was determined by the cycle number where exponential amplification began (threshold value) and averaged from the values obtained from the triplicate repeats. There was an inverse relationship between message level and threshold value. In addition, GAPDH was used as a housekeeping gene to normalize the initial content of total cDNA. […] All reactions were carried out in triplicate.
# Forty cycles of PCR were performed under standard conditions using an annealing temperature of 56° C. In addition, GAPDH was amplified as a housekeeping gene to normalize the initial content of total cDNA. […] All reactions were run three times in triplicate.
# DU145 [4] = test: [3H] thymidine incorporation proliferation; type: cell-based, human; conditions: for effect of AngII on proliferation after Los pre-treatment: DU145, Los 30 min prior to AngII; for increase in proliferation: 72 hours
# Experimental: Reagents and Treatments: […] Thymidine Incorporation: Proliferation of cells was determined by [3H] thymidine […] ([3H] TdR) incorporation into DNA. 0.5×10^6 cells/well of suspension DU145 cells were plated in their appropriate media. Cells were incubated for 72 h with or without the presence of AngII at the indicated concentrations. Cells were exposed to 37 kBq/ml [methyl-3H] thymidine in the same medium for 6 h. The adherent cells were fixed by 5% trichloroacetic acid and lysed in SDS/NaOH lysis buffer overnight. Radioactivity was measured by Beckman LS3801 liquid scintillation counter (Canada). Suspension cell culture was harvested by cell harvester (Packard instrument Co., Meriden, Conn.), and radioactivity was measured by 1450 microbeta liquid scintillation counter (PerkinElmer Life Sciences).
# [5] = system: human prostate cancer cells; conditions: xenograft models of human prostate cancer cells; cited from earlier work
# HPrEC = test: Quantitative RT-PCR of gene expression; type: cell-based, human; conditions: for decrease in DEFB1 expression compared to untreated hPrEC / increase in PAX2 expression compared to untreated hPrEC: 10 uM AngII; for PAX2 expression as % of PAX2 levels in PC3: AngII
# Experimental: RNA Isolation and Quantitative RT-PCR: In order to verify changes in DEFB1 expression levels RNA was collected after 4 days of PAX2 siRNA treatment. Briefly, total RNA was isolated using the SV Total RNA Isolation System (Promega, Madison, Wis.) from approximately 1×10^6 cells harvested by trypsinizing. Here, cells were lysed and total RNA was isolated by centrifugation through spin columns. Total RNA (0.5 μg per reaction) from both sources was reverse transcribed into cDNA utilizing random primers (Promega). AMV Reverse Transcriptase II enzyme (500 units per reaction; Promega) was used for first strand synthesis and Tfl DNA Polymerase for second strand synthesis (500 units per reaction; Promega) as per the manufacturer's protocol. In each case, 50 pg of cDNA was used per ensuing PCR reaction. Two-step QRT-PCR was performed on cDNA generated using the MultiScribe Reverse Transcripatase from the TaqMan Reverse Transcription System and the SYBR Green PCR Master Mix (Applied Biosystems).
# The primer pair for DEFB1 was generated from the published DEFB1 sequence (Accession No. U50930). Forty cycles of PCR were performed under standard conditions using an annealing temperature of 56° C. In addition, GAPDH was amplified as a housekeeping gene to normalize the initial content of total cDNA. DEFB1 expression was calculated as the relative expression ratio between DEFB1 and GAPDH and was compared in cells lines before and after siRNA knock-down of PAX2 expression. All reactions were run three times in triplicate.
# QRT-PCR Analysis: Quantitative real-time RT-PCR was performed to verify changes in gene expression following PAX2 knockdown in PC3 and DU145 prostate cancer cell lines and the hPrEC normal prostate epithelial cells. Approximately 1×10^6 cells were harvested by trypsinizing and the cells were rinsed in PBS. Cells were then lysed and total RNA was isolated by centrifugation through spin columns using the SV Total RNA Isolation System (Promega). cDNA was generated (0.5 μg per reaction) by reverse transcription by Oligo (dT) 15 primer (Promega) and AMV Reverse Transcriptase II enzyme (500 units per reaction; Promega) for first strand synthesis and Tfl DNA Polymerase for second strand synthesis (500 units per reaction; Promega) as per the manufacturer's protocol. Typically, 50 pg of each cDNA was used per ensuing PCR reaction. Two-step QRT-PCR was performed on cDNA generated using the MultiScribe Reverse Transcripatase from the TaqMan Reverse Transcription System and the SYBR Green PCR Master Mix (PE Biosystems). Reactions were performed in MicroAmp Optical 96-well Reaction Plate (PE Biosystems). Forty cycles of PCR were performed under standard conditions using an annealing temperature of 60° C. Quantification was determined by the cycle number where exponential amplification began (threshold value) and averaged from the values obtained from the triplicate repeats. There was an inverse relationship between message level and threshold value. In addition, GAPDH was used as a housekeeping gene to normalize the initial content of total cDNA. Relative expression was calculated as the ratio between each genes and GAPDH. All reactions were carried out in triplicate.
# RNA isolation and quantitative RT-PCR: QRT-PCR was performed as previously described (Gibson et al., 2007). Briefly, total RNA (0.5 μg per reaction) from tissue sections were reverse transcribed into cDNA utilizing random primers (Promega). Two-step QRT-PCR was performed on cDNA generated using the MultiScribe Reverse Transcriptase from the TaqMan Reverse Transcription System and the SYBR Green PCR Master Mix (Applied Biosystems, Foster City, Calif.). The primer pairs for hBD-1 and c-MYC were generated from the published sequences (Table 7). Forty cycles of PCR were performed under standard conditions using an annealing temperature of 56.4° C. for hBD-1 and c-MYC and 55° C. for PAX2. […]
# [6] = AngII 72 and 96 hours (FIG. 25 legend)
compound,measurement,setting,value
"NC(=O)c1ncn([C@@H]2O[C@H](CO)[C@@H](O)[C@H]2O)c1N [AICAR, 5-Aminoimidazole-4-carboxamide-1-β-4-ribofuranoside]",PAX2 expression,DU145 [1],suppresses PAX2 protein expression; also recorded: suppressed PAX2 expression; also recorded: suppression of PAX2 pression expression
same,phospho-PAX2 protein levels,DU145 [1],suppression
same,phospho-STAT3 protein levels,DU145 [2],also suppressed
N#CC(=C(/N)Sc1ccccc1N)/C(C#N)=C(\N)Sc1ccccc1N [Drug U0126],phospho-JNK protein levels,DU145 [1],did not decrease
same,PAX2 expression,DU145 [1],significant reduction of PAX2 expression
same,phospho-PAX2 protein levels,DU145 [1],significant decrease or suppression
same,phospho-STAT3 protein levels,DU145 [2],reduced phospho-STAT3 protein levels
CCCCc1nc(Cl)c(CO)n1Cc1ccc(-c2ccccc2-c2nn[nH]n2)cc1 [Losartan],ERK protein levels,"DU145 [1]; DU145, 5 uM Los",no effect
same,phospho-ERK,"DU145 [1]; DU145, 5 uM Los",suppresses phosphor-ERK 1/2
same,phospho-ERK,"DU145 [1]; DU145, 5 uM Los, listed as Los",reduced the amount of phospho-ERK
same,PAX2 expression,DU145 [1],suppresses
same,phospho-PAX2 protein levels,DU145 [1],significant decrease or suppression
same,PAX2 expression,DU145 [1]; listed as Los,significant reduction of PAX2 expression
same,PAX2 expression compared to untreated control,"DU145 [3]; DU145, 5 uM Los, 72 hours",50%
same,PAX2 message levels,DU145 [3],decreased by at least half
same,PAX2 message levels,DU145 [3]; listed as Los,significantly reduced PAX2 expression
same,phospho-STAT3 protein levels,DU145 [2],suppresses phospho-STAT3 protein expression
same,phospho-STAT3 protein levels,DU145 [2]; listed as Los,reduced phospho-STAT3 protein levels
same,decrease in proliferation,"DU145 [4]; DU145, 5 μM Losartan",50%
same,effect of AngII on proliferation after Los pre-treatment,DU145 [4],blocked the effect of AngII on proliferation
same,effect of AngII on proliferation after Los pre-treatment,DU145 [4]; listed as Los,suppressed the effect of AngII on proliferation
same,tumor growth and vascularization,[5],reduce tumor growth and vascularization
COc1cccc(-c2cc(=O)c3ccccc3o2)c1N [PD98059],PAX2 expression,DU145 [1],decreased PAX2
same,phospho-PAX2 protein levels,DU145 [1],significant decrease or suppression
same,phospho-STAT3 protein levels,DU145 [2],reduced phospho-STAT3 protein levels
Cc1cc(Cn2cnc3c2C[C@@H](C(=O)O)N(C(=O)C(c2ccccc2)c2ccccc2)C3)ccc1N(C)C [PD123319],PAX2 expression increase,"DU145 [3]; DU145, 5 uM PD123319, 48 hours",7 fold
same,PAX2 expression increase,"DU145 [3]; DU145, 5 uM PD123319, 96 hours",8 fold
"AngII: Angiotensin II, major regulator of blood pressure, potent mitogen, binds AT1R and AT2R (DRVYIHPF)",phospho-JNK protein levels,DU145 [1],increased phosphor-JNK protein levels
same,PAX2 expression over time,"DU145 [1]; DU145, AngII, 30 min to 48 hour (FIG. 19)",increased as early as 4 hours and persisted until 48 hours; also recorded: progressively increased over time
same,PAX2 expression increase,"DU145 [3]; DU145, 5 μM AngII, 72 hours (FIG. 21 legend)",2 fold
same,PAX2 expression increase,"DU145 [3]; DU145, 10 μM AngII, 72 hours (FIG. 21 legend)",> 3 fold
same,decrease in DEFB1 expression compared to untreated hPrEC,HPrEC; 72 hours,35%
same,increase in PAX2 expression compared to untreated hPrEC,HPrEC; 72 hours,66%
same,decrease in DEFB1 expression compared to untreated hPrEC,HPrEC; 96 hours,50%
same,increase in PAX2 expression compared to untreated hPrEC,HPrEC; 96 hours,79%
same,DEFB1 expression,HPrEC; [6],reduced significantly
same,PAX2 expression,HPrEC; [6],dramatic increases in PAX2 to levels similar to PC3 prostate cancer cells
same,PAX2 expression as % of PAX2 levels in PC3,HPrEC; 72 hours,77%
same,PAX2 expression as % of PAX2 levels in PC3,HPrEC; 96 hours,89%
same,increase in proliferation,"DU145 [4]; DU145, 5 μM AngII",2 fold
same,increase in proliferation,"DU145 [4]; DU145, 10 μM AngII",> 3 fold
same,increase in proliferation rate,"DU145 [4]; DU145, AngII 5 or 10 uM",two- to three-fold increase
